ChEMBL document CHEMBL1201862, “PubChem BioAssay data set” (2004)
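Test compounds were applied to cells in 96-well plates for 48 hours at 5 doses. Abbreviation: GI50, concentration required for 50% inhibition of growth.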 The source made the active and inactive calls. Cut-off read from the data, not from the text of the source: active = GI50 up to about 1.1 µM and inactive = higher.

Tests used:
Test in all cases: DTP human tumour cell line panel, 48 h
[1] = system: SN12C
[2] = system: HCC 2998
[3] = system: SF-268
[4] = system: DU-145
[5] = system: MDA-MB-435
[6] = system: CCRF-CEM
[7] = system: RPMI-8226
[8] = system: NCI-H23
[9] = system: MDA-MB-231
[10] = system: HL-60
[11] = system: UACC-62
[12] = system: MDA-N
[13] = system: TK-10
[14] = system: MOLT-4
[15] = system: PC-3
[16] = system: NCI-H460
[17] = system: A498
[18] = system: NCI-H522
[19] = system: SF-539
[20] = system: 786-0
[21] = system: LOX IMVI
[22] = system: SK-MEL-2
[23] = system: SNB-19
[24] = system: OVCAR-5
[25] = system: NCI/ADR-RES
[26] = system: ACHN
[27] = system: UACC-257
[28] = system: RXF 393
[29] = system: MCF7
[30] = system: SK-MEL-5
[31] = system: SF-295
[32] = system: OVCAR-4
[33] = system: COLO 205
[34] = system: HOP-92
[35] = system: SK-MEL-28
[36] = system: EKVX
[37] = system: HCT-116
[38] = system: U-251
[39] = system: SW-620
[40] = system: SK-OV-3
[41] = system: BT-549
[42] = system: Hs-578T
[43] = system: K562
[44] = system: NCI-H226
[45] = system: OVCAR-8
[46] = system: HCT-15
[47] = system: OVCAR-3
[48] = system: SNB-75
[49] = system: UO-31
[50] = system: M14
[51] = system: CAKI-1
[52] = system: KM12
[53] = system: A549
[54] = system: T47D
[55] = system: HT-29
[56] = system: Malme-3M
[57] = system: SR
[58] = system: IGROV-1
[59] = system: HOP-62

Measured: GI50

COc1cc(/C=C/C(=O)N[C@@H]2C(=O)N3[C@@H]2SC(C)(C)[C@@H]3C(=O)O)cc(OC)c1OC
> 100 µM: [46]
inactive: [1] > 100 µM | [2] > 100 µM | [3] > 100 µM | [4] > 100 µM | [5] > 100 µM | [6] > 100 µM | [7] > 100 µM | [8] > 100 µM | [9] > 100 µM | [10] > 100 µM | [11] > 100 µM | [12] > 100 µM | [13] > 100 µM | [14] > 100 µM | [15] > 100 µM | [16] > 100 µM | [17] > 100 µM | [18] > 100 µM | [19] > 100 µM | [20] > 100 µM | [21] > 100 µM | [22] > 100 µM | [23] > 100 µM | [24] > 100 µM | [25] > 100 µM | [26] > 100 µM | [27] > 100 µM | [28] > 100 µM | [29] > 100 µM | [30] > 100 µM | [31] > 100 µM | [32] > 100 µM | [33] > 100 µM | [34] > 100 µM | [35] > 100 µM | [36] > 100 µM | [37] > 100 µM | [38] > 100 µM | [39] > 100 µM | [40] > 100 µM | [41] > 100 µM | [42] > 100 µM | [43] > 100 µM | [44] > 100 µM | [45] > 100 µM | [47] > 100 µM | [48] > 100 µM | [49] > 100 µM | [50] > 100 µM | [51] > 100 µM | [52] > 100 µM | [53] > 100 µM | [54] > 100 µM | [55] > 100 µM

O=C(CCn1ccnc1[N+](=O)[O-])NCCCn1ccnc1[N+](=O)[O-]
> 100 µM: [46]
inactive: [1] > 100 µM | [3] > 100 µM | [4] > 100 µM | [5] > 100 µM | [6] > 100 µM | [7] > 100 µM | [56] > 100 µM | [8] > 100 µM | [9] > 100 µM | [10] > 100 µM | [11] > 100 µM | [12] > 100 µM | [13] > 100 µM | [14] > 100 µM | [15] > 100 µM | [16] > 100 µM | [17] > 100 µM | [18] > 100 µM | [19] > 100 µM | [20] > 100 µM | [21] > 100 µM | [22] > 100 µM | [24] > 100 µM | [25] > 100 µM | [57] > 100 µM | [26] > 100 µM | [27] > 100 µM | [28] > 100 µM | [29] > 100 µM | [30] > 100 µM | [31] > 100 µM | [32] > 100 µM | [33] > 100 µM | [58] > 100 µM | [35] > 100 µM | [36] > 100 µM | [37] > 100 µM | [38] > 100 µM | [39] > 100 µM | [40] > 100 µM | [41] > 100 µM | [59] > 100 µM | [42] > 100 µM | [43] > 100 µM | [44] > 100 µM | [45] > 100 µM | [47] > 100 µM | [48] > 100 µM | [49] > 100 µM | [50] > 100 µM | [51] > 100 µM | [52] > 100 µM | [53] > 100 µM | [54] > 100 µM | [55] > 100 µM
